{"source": "the supplement of paper PMC12076712", "assay_in_all_cases": "pIC50, kinobeads binding competition", "key": {"[1]": {"target": "MAPK11 (UniProt Q15759)", "sequence (Q15759 whole entry)": "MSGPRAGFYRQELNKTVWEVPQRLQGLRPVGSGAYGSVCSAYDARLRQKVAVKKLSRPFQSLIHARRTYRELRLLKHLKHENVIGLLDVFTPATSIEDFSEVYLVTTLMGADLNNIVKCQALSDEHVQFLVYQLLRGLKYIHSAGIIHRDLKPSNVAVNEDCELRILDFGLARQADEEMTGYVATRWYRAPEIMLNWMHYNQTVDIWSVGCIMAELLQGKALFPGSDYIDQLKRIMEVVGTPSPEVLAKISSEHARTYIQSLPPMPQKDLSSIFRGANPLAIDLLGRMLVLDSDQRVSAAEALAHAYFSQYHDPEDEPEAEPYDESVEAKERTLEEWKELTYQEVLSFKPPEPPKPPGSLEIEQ", "in_short": "(§1)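 Fold changes relative to vehicle, from biological duplicates, were fitted with logistic dose-response models in the R drc package to give pIC50. These fold changes came from TMT10 LC-MS/MS quantification of digested Kinobeads-bound proteins. Compound was applied at nine concentrations (top 30 μM) either to live Jurkat cells in 1:4 steps for 60 min at 37 °C before lysis, or to Jurkat lysate or a 1:1:1:1 HEK293/K-562/HepG2/placenta lysate mix in 1:5 steps for 60 min at 4 °C.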"}, "[2]": {"target": "FGFR2 (UniProt P21802)", "sequence (P21802 whole entry, looked up)": "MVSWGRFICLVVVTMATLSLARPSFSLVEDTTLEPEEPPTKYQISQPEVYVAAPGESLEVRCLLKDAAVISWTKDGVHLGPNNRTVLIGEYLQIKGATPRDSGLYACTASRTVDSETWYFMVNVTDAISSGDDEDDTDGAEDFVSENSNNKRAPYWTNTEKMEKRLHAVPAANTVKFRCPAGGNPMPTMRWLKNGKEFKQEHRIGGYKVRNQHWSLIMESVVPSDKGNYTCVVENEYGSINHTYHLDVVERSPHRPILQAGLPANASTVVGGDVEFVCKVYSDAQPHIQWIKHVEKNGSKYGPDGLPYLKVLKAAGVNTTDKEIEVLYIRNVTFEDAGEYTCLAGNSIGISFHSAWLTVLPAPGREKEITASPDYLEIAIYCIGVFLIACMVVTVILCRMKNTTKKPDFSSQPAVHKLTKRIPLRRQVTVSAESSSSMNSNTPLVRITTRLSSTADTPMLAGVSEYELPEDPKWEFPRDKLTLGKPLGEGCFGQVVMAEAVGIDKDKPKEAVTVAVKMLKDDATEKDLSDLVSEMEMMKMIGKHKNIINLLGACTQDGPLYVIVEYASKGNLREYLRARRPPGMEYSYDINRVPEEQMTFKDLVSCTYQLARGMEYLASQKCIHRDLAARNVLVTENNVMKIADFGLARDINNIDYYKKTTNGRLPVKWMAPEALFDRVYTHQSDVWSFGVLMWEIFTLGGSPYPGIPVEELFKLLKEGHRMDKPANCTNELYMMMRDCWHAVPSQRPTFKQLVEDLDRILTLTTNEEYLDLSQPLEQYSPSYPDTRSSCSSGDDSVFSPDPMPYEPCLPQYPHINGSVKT", "details": "cell material: Lysate mix", "in_short": "as §1"}, "[3]": {"target": "MAST4 (UniProt O15021)", "sequence (O15021 whole entry)": "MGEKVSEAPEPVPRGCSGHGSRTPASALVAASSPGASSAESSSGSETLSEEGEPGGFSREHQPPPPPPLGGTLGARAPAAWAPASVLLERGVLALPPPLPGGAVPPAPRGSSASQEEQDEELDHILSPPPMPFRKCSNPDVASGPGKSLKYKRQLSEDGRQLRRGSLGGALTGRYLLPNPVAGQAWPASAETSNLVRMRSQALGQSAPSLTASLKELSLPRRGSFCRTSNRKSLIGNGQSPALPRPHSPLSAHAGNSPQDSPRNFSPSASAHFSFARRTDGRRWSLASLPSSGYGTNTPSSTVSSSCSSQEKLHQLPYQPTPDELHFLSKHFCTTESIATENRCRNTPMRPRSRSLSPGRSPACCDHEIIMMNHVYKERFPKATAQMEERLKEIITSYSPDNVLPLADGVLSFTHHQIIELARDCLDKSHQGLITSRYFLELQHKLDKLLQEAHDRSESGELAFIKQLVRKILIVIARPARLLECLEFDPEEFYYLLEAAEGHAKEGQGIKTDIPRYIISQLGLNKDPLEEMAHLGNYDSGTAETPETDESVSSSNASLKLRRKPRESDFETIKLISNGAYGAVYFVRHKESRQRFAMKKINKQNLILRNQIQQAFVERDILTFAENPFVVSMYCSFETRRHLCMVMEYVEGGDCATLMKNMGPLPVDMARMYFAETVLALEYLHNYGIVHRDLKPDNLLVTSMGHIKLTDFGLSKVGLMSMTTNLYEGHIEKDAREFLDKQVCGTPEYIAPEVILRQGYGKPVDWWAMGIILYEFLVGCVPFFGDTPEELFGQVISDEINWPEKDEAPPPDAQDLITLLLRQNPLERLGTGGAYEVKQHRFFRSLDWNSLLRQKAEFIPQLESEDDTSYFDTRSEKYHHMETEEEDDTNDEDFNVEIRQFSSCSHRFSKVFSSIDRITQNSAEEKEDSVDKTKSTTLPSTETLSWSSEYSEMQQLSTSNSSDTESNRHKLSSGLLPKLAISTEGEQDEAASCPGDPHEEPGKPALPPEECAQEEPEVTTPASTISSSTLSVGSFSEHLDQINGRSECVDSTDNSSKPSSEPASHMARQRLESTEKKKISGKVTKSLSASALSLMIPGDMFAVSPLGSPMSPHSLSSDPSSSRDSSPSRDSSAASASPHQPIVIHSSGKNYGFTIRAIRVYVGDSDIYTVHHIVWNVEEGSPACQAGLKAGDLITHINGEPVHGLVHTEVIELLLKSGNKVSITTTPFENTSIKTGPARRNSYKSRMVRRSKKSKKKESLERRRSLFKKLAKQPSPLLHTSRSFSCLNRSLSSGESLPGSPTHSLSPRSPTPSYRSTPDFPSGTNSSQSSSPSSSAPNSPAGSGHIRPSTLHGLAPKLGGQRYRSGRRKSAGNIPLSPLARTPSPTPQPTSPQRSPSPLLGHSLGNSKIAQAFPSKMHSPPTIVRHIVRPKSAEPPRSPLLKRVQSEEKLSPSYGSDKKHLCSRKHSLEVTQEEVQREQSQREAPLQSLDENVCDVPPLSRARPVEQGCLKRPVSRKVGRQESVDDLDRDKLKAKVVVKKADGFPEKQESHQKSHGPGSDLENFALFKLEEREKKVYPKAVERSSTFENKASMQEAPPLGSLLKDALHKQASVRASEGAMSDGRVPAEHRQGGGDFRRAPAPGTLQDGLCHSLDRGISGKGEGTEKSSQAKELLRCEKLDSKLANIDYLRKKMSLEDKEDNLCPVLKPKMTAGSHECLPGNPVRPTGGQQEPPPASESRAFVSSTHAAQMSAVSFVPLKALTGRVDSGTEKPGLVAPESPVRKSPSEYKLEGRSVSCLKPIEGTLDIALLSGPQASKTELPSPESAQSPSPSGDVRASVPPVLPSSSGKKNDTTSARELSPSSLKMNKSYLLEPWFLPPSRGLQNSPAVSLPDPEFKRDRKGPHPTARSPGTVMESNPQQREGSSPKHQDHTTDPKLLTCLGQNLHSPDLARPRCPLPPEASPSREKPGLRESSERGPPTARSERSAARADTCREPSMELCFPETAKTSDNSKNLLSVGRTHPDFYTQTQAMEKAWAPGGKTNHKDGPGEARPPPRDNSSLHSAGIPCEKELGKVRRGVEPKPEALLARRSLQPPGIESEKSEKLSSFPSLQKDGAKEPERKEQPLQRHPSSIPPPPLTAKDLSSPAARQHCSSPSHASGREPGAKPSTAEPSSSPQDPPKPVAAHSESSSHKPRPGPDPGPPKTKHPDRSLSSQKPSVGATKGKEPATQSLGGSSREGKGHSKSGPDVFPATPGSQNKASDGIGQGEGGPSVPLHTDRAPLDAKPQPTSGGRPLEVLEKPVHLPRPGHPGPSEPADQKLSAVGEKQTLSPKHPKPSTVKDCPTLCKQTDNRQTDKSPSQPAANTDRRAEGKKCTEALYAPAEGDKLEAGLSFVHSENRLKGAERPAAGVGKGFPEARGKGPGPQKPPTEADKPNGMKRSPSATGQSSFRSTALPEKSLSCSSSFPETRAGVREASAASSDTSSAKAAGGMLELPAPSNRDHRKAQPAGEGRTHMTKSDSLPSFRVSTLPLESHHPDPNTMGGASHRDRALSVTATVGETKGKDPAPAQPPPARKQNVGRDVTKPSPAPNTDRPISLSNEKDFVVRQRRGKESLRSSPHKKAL", "in_short": "as §1"}, "[4]": {"target": "CDK9 (UniProt P50750)", "sequence (P50750 whole entry)": "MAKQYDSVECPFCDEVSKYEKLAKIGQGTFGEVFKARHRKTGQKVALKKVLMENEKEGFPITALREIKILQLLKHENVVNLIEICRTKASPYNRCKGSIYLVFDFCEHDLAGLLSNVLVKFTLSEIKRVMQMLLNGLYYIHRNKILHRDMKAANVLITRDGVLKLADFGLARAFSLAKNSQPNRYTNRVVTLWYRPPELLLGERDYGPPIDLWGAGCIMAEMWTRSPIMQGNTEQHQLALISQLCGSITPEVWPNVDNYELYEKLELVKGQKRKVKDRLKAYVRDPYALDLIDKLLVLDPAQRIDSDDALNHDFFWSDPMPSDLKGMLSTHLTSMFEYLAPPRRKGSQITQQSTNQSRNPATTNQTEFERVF", "in_short": "as §1"}, "[5]": {"target": "T1, MAP4K2 (UniProt Q12851)", "T1 sequence (whole entry)": "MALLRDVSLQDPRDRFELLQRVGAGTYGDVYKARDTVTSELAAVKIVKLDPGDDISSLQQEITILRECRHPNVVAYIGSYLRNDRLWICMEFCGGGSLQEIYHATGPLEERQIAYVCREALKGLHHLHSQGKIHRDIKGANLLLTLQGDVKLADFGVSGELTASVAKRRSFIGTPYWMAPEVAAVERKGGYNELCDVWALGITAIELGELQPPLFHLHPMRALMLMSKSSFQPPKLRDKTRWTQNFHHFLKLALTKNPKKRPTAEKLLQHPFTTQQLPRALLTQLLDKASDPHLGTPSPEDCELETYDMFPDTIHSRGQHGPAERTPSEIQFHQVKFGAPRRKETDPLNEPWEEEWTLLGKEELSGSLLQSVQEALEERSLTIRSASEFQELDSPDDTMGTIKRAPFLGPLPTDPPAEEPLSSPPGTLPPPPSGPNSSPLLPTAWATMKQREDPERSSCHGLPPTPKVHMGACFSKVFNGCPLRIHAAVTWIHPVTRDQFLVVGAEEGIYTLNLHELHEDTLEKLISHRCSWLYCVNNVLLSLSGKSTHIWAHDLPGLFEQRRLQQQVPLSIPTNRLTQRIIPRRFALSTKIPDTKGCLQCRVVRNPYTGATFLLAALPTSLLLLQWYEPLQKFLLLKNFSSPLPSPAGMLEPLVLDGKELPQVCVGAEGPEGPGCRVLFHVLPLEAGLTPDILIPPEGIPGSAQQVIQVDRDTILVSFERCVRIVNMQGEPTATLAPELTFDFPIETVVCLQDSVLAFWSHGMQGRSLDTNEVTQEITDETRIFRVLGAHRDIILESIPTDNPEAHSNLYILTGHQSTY", "in_short": "as §1"}, "[6]": {"target": "T2, UniProt P25098", "T2 sequence (whole entry)": "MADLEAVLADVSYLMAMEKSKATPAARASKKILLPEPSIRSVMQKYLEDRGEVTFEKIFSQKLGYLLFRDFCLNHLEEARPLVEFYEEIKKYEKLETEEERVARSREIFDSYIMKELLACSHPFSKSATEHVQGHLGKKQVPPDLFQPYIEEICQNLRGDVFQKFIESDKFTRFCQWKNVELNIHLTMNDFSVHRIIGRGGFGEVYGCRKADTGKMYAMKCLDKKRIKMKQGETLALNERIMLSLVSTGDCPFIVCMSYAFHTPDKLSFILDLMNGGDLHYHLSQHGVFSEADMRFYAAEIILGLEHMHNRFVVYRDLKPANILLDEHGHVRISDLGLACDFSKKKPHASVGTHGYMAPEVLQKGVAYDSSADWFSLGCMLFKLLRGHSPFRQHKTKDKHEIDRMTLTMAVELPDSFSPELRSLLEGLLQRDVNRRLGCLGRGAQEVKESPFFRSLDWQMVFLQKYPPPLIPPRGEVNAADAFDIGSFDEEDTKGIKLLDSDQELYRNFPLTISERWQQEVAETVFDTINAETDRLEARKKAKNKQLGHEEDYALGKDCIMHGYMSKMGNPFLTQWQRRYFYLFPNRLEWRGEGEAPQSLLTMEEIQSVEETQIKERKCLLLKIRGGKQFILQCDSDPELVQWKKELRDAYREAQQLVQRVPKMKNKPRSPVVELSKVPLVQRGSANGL", "in_short": "as §1"}, "[7]": {"target": "T3, SGK3 (UniProt Q96BR1)", "T3 sequence (whole entry)": "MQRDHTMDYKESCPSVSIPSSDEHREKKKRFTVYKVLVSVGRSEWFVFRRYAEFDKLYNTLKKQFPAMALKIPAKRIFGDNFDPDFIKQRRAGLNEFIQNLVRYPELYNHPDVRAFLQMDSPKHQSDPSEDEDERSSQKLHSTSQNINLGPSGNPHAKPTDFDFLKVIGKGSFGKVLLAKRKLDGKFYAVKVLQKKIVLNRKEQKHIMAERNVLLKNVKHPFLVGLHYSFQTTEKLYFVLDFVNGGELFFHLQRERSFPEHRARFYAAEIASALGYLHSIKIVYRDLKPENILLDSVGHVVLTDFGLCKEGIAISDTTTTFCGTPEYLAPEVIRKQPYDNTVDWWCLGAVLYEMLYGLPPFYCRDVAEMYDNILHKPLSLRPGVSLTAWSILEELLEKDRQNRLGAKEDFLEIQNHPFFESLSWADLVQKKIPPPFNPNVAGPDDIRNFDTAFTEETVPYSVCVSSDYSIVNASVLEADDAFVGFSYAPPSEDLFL", "in_short": "as §1"}}}
{"smiles": "CCNC(=O)c1cc(Nc2cc(C)[nH]n2)nc(N2CCN(Cc3ccc(S(=O)(=O)F)cc3)CC2)n1", "values": [{"measurement": "pIC50", "setting": "[1]; cell material: Lysate mix", "value": "< 4.52"}, {"measurement": "pIC50", "setting": "[2]", "value": "< 4.52"}, {"measurement": "pIC50", "setting": "[3]; cell material: Lysate mix", "value": 6.4}, {"measurement": "pIC50", "setting": "[4]; cell material: Lysate mix", "value": "< 4.52"}, {"measurement": "pIC50", "setting": "[5]; cell material: Lysate mix", "value": 4.7}, {"measurement": "pIC50", "setting": "[6]; cell material: Lysate mix", "value": "< 4.52"}, {"measurement": "pIC50", "setting": "[7]; cell material: Lysate mix", "value": 5.98}]}
{"smiles": "CCNC(=O)c1cc(Nc2cc(C3CC3)[nH]n2)nc(N2CCN(Cc3ccc(S(=O)(=O)F)cc3)CC2)n1", "values": [{"measurement": "pIC50", "setting": "[1]; cell material: Lysate mix", "value": "< 4.52"}, {"measurement": "pIC50", "setting": "[2]", "value": 5.24}, {"measurement": "pIC50", "setting": "[3]; cell material: Lysate mix", "value": 6.37}, {"measurement": "pIC50", "setting": "[4]; cell material: Lysate mix", "value": 4.73}, {"measurement": "pIC50", "setting": "[5]; cell material: Lysate mix", "value": 4.88}, {"measurement": "pIC50", "setting": "[6]; cell material: Lysate mix", "value": "< 4.52"}, {"measurement": "pIC50", "setting": "[7]; cell material: Lysate mix", "value": 5.67}]}
{"smiles": "Cc1cc(Nc2cc(C(=O)NCCNC(=O)OC3CC/C=C/CCC3)nc(N3CCN(Cc4ccc(S(=O)(=O)F)cc4)CC3)n2)n[nH]1", "note": "(configuration not stated)", "values": [{"measurement": "pIC50", "setting": "[1]; cell material: Lysate mix", "value": "< 4.52"}, {"measurement": "pIC50", "setting": "[2]", "value": "< 4.52"}, {"measurement": "pIC50", "setting": "[3]; cell material: Lysate mix", "value": 4.74}, {"measurement": "pIC50", "setting": "[4]; cell material: Lysate mix", "value": "< 4.52"}, {"measurement": "pIC50", "setting": "[5]; cell material: Lysate mix", "value": "< 4.52"}, {"measurement": "pIC50", "setting": "[6]; cell material: Lysate mix", "value": "< 4.52"}, {"measurement": "pIC50", "setting": "[7]; cell material: Lysate mix", "value": 5.22}]}
{"smiles": "C#CCNC(=O)c1cc(Nc2cc(C3CC3)[nH]n2)nc(N2CCN(Cc3ccc(S(=O)(=O)F)cc3)CC2)n1", "values": [{"measurement": "pIC50", "setting": "[1]; cell material: Jurkat lysate", "value": "< 4.52"}, {"measurement": "pIC50", "setting": "[1]; cell material: Lysate mix", "value": "< 4.52"}, {"measurement": "pIC50", "setting": "[2]", "value": 4.94}, {"measurement": "pIC50", "setting": "[3]; cell material: Jurkat lysate", "value": 6.46}, {"measurement": "pIC50", "setting": "[3]; cell material: Lysate mix", "value": 7}, {"measurement": "pIC50", "setting": "[4]; cell material: Jurkat cells", "value": 6.24}, {"measurement": "pIC50", "setting": "[4]; cell material: Jurkat lysate", "value": 5.81}, {"measurement": "pIC50", "setting": "[4]; cell material: Lysate mix", "value": 6.16}, {"measurement": "pIC50", "setting": "[5]; cell material: Jurkat cells", "value": 5.92}, {"measurement": "pIC50", "setting": "[5]; cell material: Jurkat lysate", "value": 4.56}, {"measurement": "pIC50", "setting": "[5]; cell material: Lysate mix", "value": 5.36}, {"measurement": "pIC50", "setting": "[6]; cell material: Jurkat cells", "value": 5.69}, {"measurement": "pIC50", "setting": "[6]; cell material: Jurkat lysate", "value": "< 4.52"}, {"measurement": "pIC50", "setting": "[7]; cell material: Jurkat cells", "value": 6.6}, {"measurement": "pIC50", "setting": "[7]; cell material: Jurkat lysate", "value": 5.65}, {"measurement": "pIC50", "setting": "[7]; cell material: Lysate mix", "value": 5.96}]}
{"smiles": "C#CCNC(=O)c1cc(Nc2cc(C)[nH]n2)nc(N2CCN(Cc3ccc(S(=O)(=O)F)cc3)CC2)n1", "values": [{"measurement": "pIC50", "setting": "[1]; cell material: Lysate mix", "value": "< 4.52"}, {"measurement": "pIC50", "setting": "[2]", "value": "< 4.52"}, {"measurement": "pIC50", "setting": "[3]; cell material: Lysate mix", "value": 6.06}, {"measurement": "pIC50", "setting": "[4]; cell material: Lysate mix", "value": 4.84}, {"measurement": "pIC50", "setting": "[5]; cell material: Lysate mix", "value": 4.81}, {"measurement": "pIC50", "setting": "[6]; cell material: Lysate mix", "value": "< 4.52"}, {"measurement": "pIC50", "setting": "[7]; cell material: Lysate mix", "value": 6.06}]}
{"smiles": "O=C(NCCNC(=O)c1cc(Nc2cc(C3CC3)[nH]n2)nc(N2CCN(Cc3ccc(S(=O)(=O)F)cc3)CC2)n1)OC1CC/C=C/CCC1", "note": "(configuration not stated)", "values": [{"measurement": "pIC50", "setting": "[1]; cell material: Jurkat cells", "value": "< 4.52"}, {"measurement": "pIC50", "setting": "[1]; cell material: Jurkat lysate", "value": "< 4.52"}, {"measurement": "pIC50", "setting": "[1]; cell material: Lysate mix", "value": "< 4.52"}, {"measurement": "pIC50", "setting": "[2]", "value": "< 4.52"}, {"measurement": "pIC50", "setting": "[3]; cell material: Jurkat cells", "value": 6.3}, {"measurement": "pIC50", "setting": "[3]; cell material: Jurkat lysate", "value": 5.17}, {"measurement": "pIC50", "setting": "[3]; cell material: Lysate mix", "value": 5.3}, {"measurement": "pIC50", "setting": "[4]; cell material: Jurkat lysate", "value": "< 4.52"}, {"measurement": "pIC50", "setting": "[4]; cell material: Lysate mix", "value": "< 4.52"}, {"measurement": "pIC50", "setting": "[5]; cell material: Jurkat cells", "value": 5.33}, {"measurement": "pIC50", "setting": "[5]; cell material: Jurkat lysate", "value": "< 4.52"}, {"measurement": "pIC50", "setting": "[5]; cell material: Lysate mix", "value": "< 4.52"}, {"measurement": "pIC50", "setting": "[6]; cell material: Jurkat cells", "value": 5}, {"measurement": "pIC50", "setting": "[6]; cell material: Jurkat lysate", "value": "< 4.52"}, {"measurement": "pIC50", "setting": "[6]; cell material: Lysate mix", "value": "< 4.52"}, {"measurement": "pIC50", "setting": "[7]; cell material: Jurkat cells", "value": 6.44}, {"measurement": "pIC50", "setting": "[7]; cell material: Jurkat lysate", "value": 4.92}, {"measurement": "pIC50", "setting": "[7]; cell material: Lysate mix", "value": 4.88}]}
